# Test results from ChEMBL document CHEMBL1143880, “Targeting gastrin-releasing peptide receptors of prostate cancer cells for photodynamic therapy with a phthalocyanine-bombesin conjugate” (Bioorg Med Chem Lett, 2008).
# Target: Gastrin-releasing peptide receptor (Homo sapiens, UniProt P30550)
# Experiment: Displacement of 125I[Tyr4]-bombesin from GRPR expressed in human PC3 cells
# Type: cell-based, PC-3
# Chain of Gastrin-releasing peptide receptor (P30550 whole entry): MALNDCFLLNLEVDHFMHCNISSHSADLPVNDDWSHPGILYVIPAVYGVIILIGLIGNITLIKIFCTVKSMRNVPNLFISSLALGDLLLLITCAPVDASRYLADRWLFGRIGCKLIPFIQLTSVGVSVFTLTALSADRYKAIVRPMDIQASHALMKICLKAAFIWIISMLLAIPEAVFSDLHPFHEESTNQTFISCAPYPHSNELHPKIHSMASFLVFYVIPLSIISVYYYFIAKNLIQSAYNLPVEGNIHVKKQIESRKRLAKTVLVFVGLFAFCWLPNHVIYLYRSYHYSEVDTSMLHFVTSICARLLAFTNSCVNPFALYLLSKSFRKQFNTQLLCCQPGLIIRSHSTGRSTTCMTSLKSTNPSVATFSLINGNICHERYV
smiles,measurement,value
CSCC[C@H](NC(=O)[C@H](CC(C)C)NC(=O)[C@H](Cc1cnc[nH]1)NC(=O)CNC(=O)[C@@H](NC(=O)[C@H](C)NC(=O)[C@H](Cc1c[nH]c2ccccc12)NC(=O)[C@H](CCC(N)=O)NC(=O)CCCCCCCNC(=O)CCCCCN)C(C)C)C(N)=O,EC50,0.373 nM
